Test results reported in PubChem BioAssay (NCI).
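Values below derive from 48-hour exposures of cells grown in 96-well plates, with endpoints linearly interpolated between the two concentrations bracketing the appropriate inhibition level. The concentration for 50% growth inhibition is given as GI50. Definition used: TGI = concentration required for complete inhibition of growth.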

Legend:
Experiment in all cases: inhibition of tumour cell growth, NCI panel, 48 h
[1] = system: NCI-H226 lung
[2] = system: SF-539 CNS
[3] = system: HL-60(TB) leukemia
[4] = system: UACC-62 melanoma
[5] = system: CAKI-1 renal
[6] = system: EKVX NSCLC
[7] = system: IGROV1 ovarian
[8] = system: SF-268 CNS
[9] = system: HOP-62 NSCLC
[10] = system: BT-549 breast

Row | Compound | TGI [1] [µM] | TGI [2] [µM] | TGI [3] [µM] | TGI [4] [µM] | TGI [5] [µM] | TGI [6] [µM] | TGI [7] [µM] | TGI [8] [µM] | TGI [9] [µM] | GI50 [7] [µM] | GI50 [1] [µM] | GI50 [10] [µM] | TGI [10] [µM] | GI50 [2] [µM] | GI50 [3] [µM] | GI50 [8] [µM] | GI50 [4] [µM] | GI50 [9] [µM] | GI50 [5] [µM] | GI50 [6] [µM]
1 | CN(c1ccccc1)c1c(Cl)c(=O)oc2c1ccc1occc12 | > 100 | > 100 | > 100 | > 100 | > 100 | > 100 | – | – | – | – | – | – | – | – | – | – | – | – | – | –
2 | CCOC(=O)C1(C)CCCCC(=O)N1 (stereo unspecified) | – | – | > 100 | > 100 | > 100 | > 100 | > 100 | > 100 | > 100 | – | – | – | – | – | – | – | – | – | – | –
3 | O=P(O)(O)C1(P(=O)(O)O)CC1 | > 100 | > 100 | – | > 100 | > 100 | > 100 | > 100 | > 100 | > 100 | – | – | – | – | – | – | – | – | – | – | –
4 | COc1ccc(/C(C#N)=C2C=C/C(=N/O)c3ccccc3\2)cc1 | 17 | 0.67 | 0.688 | 7.47 | 26.1 | – | 17.6 | 15 | 16 | 0.523 | 3.71 | 0.333 | 8.18 | 0.2 | 0.254 | 0.481 | 0.48 | 0.376 | 0.608 | –
5 | CCn1c(-c2nonc2N)nc2cncc(C(=O)N3CC[C@H](N)C3)c21 | > 25 | > 25 | > 25 | > 25 | > 25 | – | > 25 | > 25 | > 25 | > 25 | 0.966 | 3.92 | > 25 | 2.63 | > 25 | > 19.5 | > 25 | 7.38 | 2.35 | –
6 | Cn1cc(C2=C(c3cn(CCCCCSC(=N)N)c4ccccc34)C(=O)NC2=O)c2ccccc21 | 9.96 | 6.77 | 7.85 | 7.25 | 7.94 | – | 7.93 | 7.8 | 7.59 | 3.51 | 4.09 | 3.65 | 7.12 | 3.51 | 3.62 | 3.86 | 3.87 | 3.96 | 4.03 | –
7 | COc1cc(CCc2ccc(N)cc2)cc(OC)c1OC | > 100 | > 100 | > 92.5 | > 89.8 | > 100 | > 100 | > 100 | > 100 | > 100 | – | – | – | – | – | – | – | – | – | – | –
8 | O=C(CC(Cl)=C(Cl)Cl)c1cccc(Cl)c1Cl | > 100 | > 100 | > 100 | > 100 | – | > 100 | > 100 | > 100 | > 100 | 46.3 | 75.1 | 70.6 | > 100 | 84.1 | 64.8 | > 100 | 52.4 | 82.1 | – | 57.7
9 | CCCCCCC[CH2][Sn]1([CH2]CCCCCCC)[O]C(=O)c2cccnc2[O]1 | > 100 | > 100 | > 100 | > 100 | > 100 | > 100 | > 100 | – | – | > 100 | > 100 | – | – | > 100 | > 100 | – | > 100 | – | > 100 | > 100
10 | ClC(Cl)[Si]12OCCN(CCO1)CCO2 | – | > 100 | > 100 | > 100 | > 100 | – | > 100 | > 100 | – | – | – | – | – | – | – | – | – | – | – | –
11 | COC(=O)[C@H]1CCCN1C(=O)[C@H]1CCCN1C(=O)[C@H](Cc1c[nH]c2ccccc12)NC(=S)Nc1cc(C(F)(F)F)cc(C(F)(F)F)c1 | > 100 | 30.4 | 57.2 | > 100 | > 100 | – | > 100 | > 100 | > 100 | 6.97 | 9.63 | 8.74 | 46 | 3.93 | 4.19 | 8.2 | 6.14 | 8.28 | 15 | –
12 | CCSc1c2ccccc2c(-c2nc(F)nc(F)n2)n1CCc1ccccc1 | > 100 | > 100 | > 100 | – | > 100 | > 100 | – | > 100 | > 100 | – | – | – | – | – | – | – | – | – | – | –
13 | C[C@]12CCC3[C@@H](CC[C@@H]4c5nonc5CC[C@]34C)C1CC[C@@H]2O (stereo partly specified) | > 100 | 32.3 | 43.9 | > 100 | 52.6 | 75.5 | > 100 | > 100 | > 100 | – | – | – | – | – | – | – | – | – | – | –
14 | COc1cccc(-c2cc(=O)c3ccccc3[nH]2)c1 | > 29.6 | 18.7 | 8.57 | > 100 | – | > 100 | > 100 | > 100 | > 100 | – | – | – | – | – | – | – | – | – | – | –
15 | COc1cc2c3c(n(C)c(=O)c2cc1OC)-c1ccc(C#N)cc1C3=O | > 100 | > 100 | – | > 100 | > 100 | > 100 | > 100 | > 100 | > 100 | 30.5 | > 100 | > 100 | > 100 | > 100 | – | > 100 | > 100 | 74.1 | > 100 | > 100
16 | Cc1ccc(S(=O)(=O)NC(CN)C(=O)O)cc1 (stereo unspecified) | > 100 | > 100 | – | > 100 | > 100 | > 100 | > 100 | > 100 | > 100 | – | – | – | > 100 | – | – | – | – | – | – | –
17 | Nc1c(Cl)ncnc1NCCCNc1ncnc(Cl)c1N | > 100 | > 100 | > 100 | > 100 | > 100 | > 100 | > 100 | > 100 | > 100 | – | – | – | – | – | – | – | – | – | – | –
18 | CN(CCCNC(=O)CCOCCOCCOCCNC(=O)Cc1ccc2ccc3cccc4ccc1c2c34)CCCNc1cc(-c2ccc3ccccc3c2)nc2ccccc12 | 13.3 | 0.99 | – | 4.55 | 3.34 | 0.959 | – | 1.14 | 1.12 | – | 3.94 | 2.01 | 4.68 | 0.526 | – | 0.54 | 1.12 | 0.593 | 1.06 | 0.48
